In US20050261319A1, “Novel 2-amino-4-quinazolinones and 2-amino-4-oxoquinazolones as LXR nuclear receptor binding compounds with partial agonistic properties” (priority 2002, published 2005):

Experiments:
Assay type in all cases: cell-based
HepG2 liver cells = assay: Triglyceride assay in HepG2 cells; settings: 24 h, 25 pM
Protocol: Methods: Cultures of the monocyte-macrophage cell line and the hepatocytes HepG2 are obtained from the American Type tissue Culture Collection, Rockville, Md. and were grown in RPMI 1640 medium supplemented with 10% fetal bovine serum, 10 mM HEPES, 2 mM pyruvate, 50 uM (3-Mercaptoethanol (THP-1) and Minimum essential medium (Eagle) with 2 mM L-glutamine and Earle's BSS supplemented with 10% fetal bovine serum, 2 mM glutamin, 0.1 mM non-essential amino acids, 1 mM sodium pyruvate (HepG2), respectively, at 37° C. in 5% CO2.
For cholesterol efflux measurements and triglyceride analysis cells are seeded in 6 well plates at 1.8×10^6 cells (THP-1) and 1×10^6 cells (HepG2) per well, respectively.
TRIGLYCERIDE ASSAY HepG2 cells are seeded in poly-L-Lysine coated 6 well plates at 1×10^6 cells per well in EMEM medium containing 10% FCS until they were appr. 60% confluent. Before treatment with LXR compounds growth medium is changed to medium containing 10% charcoal/dextran-stripped FCS for 12 h. Treatment is done for 24 h in medium containing 10% charcoal/dextran-stripped FCS. Cells are washed twice with ice-cold PBS/0.2% BSA and twice with cold PBS and all liquid carefully removed. Triglyceride are extracted with 1.5 ml hexane/isopropanol=3: 2 per well with gentle shaking for 2-3 h at RT according to Pan et al. (2002) JBC277, 4413-4421 and Goti et al. (1998) Biochem J, 332, 57-65. The extraction solution is collected, dried under vacuum and redissolved in isopropanol/1.5% triton. The remaining cellular proteins are lysed with 0.3 N NaOH and protein content measured with the Biorad Bradford reagent.
Triglyceride levels are measured as esterified glycerol using a commercial enzymatic colorimetric kit (Sigma 343-25P). In a preliminary assay it is checked by omitting the lipase enzyme that contribution of free glycerol is negligible.

GAL4-LXRb-LBD = target: T1, GAL4-LXRb-LBD (Homo sapiens, UniProt P55055); assay: Mammalian one hybrid (M1H) luciferase assay in HEK293 cells, LXR beta LBD; settings: for LXR beta LBD construct mediated luciferase activity compared with LXR alpha construct: M1H assay
T1 construct: expressed in transfected cells; host or cells: HEK293
T1 sequence (P55055 222-460 limits assumed): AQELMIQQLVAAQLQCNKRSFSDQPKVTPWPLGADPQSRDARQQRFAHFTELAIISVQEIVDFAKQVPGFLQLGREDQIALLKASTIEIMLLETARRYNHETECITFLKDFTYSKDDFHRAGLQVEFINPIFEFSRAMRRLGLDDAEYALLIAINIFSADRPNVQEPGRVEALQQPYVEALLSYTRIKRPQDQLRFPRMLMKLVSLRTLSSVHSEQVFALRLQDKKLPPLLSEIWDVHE
Protocol: (§1) For TR1040001892, TR1040011382, TR1040002211, and TR1040002212, HEK293 cells are grown in 96 well plates and co-transfected with pFR-luc (Stratagene) and pCMV-BD-LXRa-LBD or pCMV-BD-LXRb-LBD (each 100 ng of plasmid DNA per well). Transfection is carried using Lipfectamine 2000 (Gibco-BRL) according to the manufacturers protocol. The ligand binding domains (LBD) of LXRa and LXRb are cloned into the pCMV-BD-GW (the Gateway Reading Frame Cassette B is cloned as an EcoRV fragment into Sma1 site of pCMV-BD) applying the manufacturer protocols for the Gateway system (Invitrogen). […] The type of assay used here is a mammalian one hybrid (M1 H) assay that is known to those skilled in the art.

THP-1 macrophages = assay: Cholesterol efflux from differentiated THP-1 macrophages; settings: ApoA1, 10 uM, 24 h
Protocol: Methods: Cultures of the monocyte-macrophage cell line and the hepatocytes HepG2 are obtained from the American Type tissue Culture Collection, Rockville, Md. and were grown in RPMI 1640 medium supplemented with 10% fetal bovine serum, 10 mM HEPES, 2 mM pyruvate, 50 uM (3-Mercaptoethanol (THP-1) and Minimum essential medium (Eagle) with 2 mM L-glutamine and Earle's BSS supplemented with 10% fetal bovine serum, 2 mM glutamin, 0.1 mM non-essential amino acids, 1 mM sodium pyruvate (HepG2), respectively, at 37° C. in 5% CO2. THP-1 cells are differentiated into macrophages by addition of 100 nM Phorbol 12-Myristate 13-Acetate (PMA; Sigma P8139) and PMA included in the medium of all subsequent experiments to maintain differentiation. For cholesterol efflux measurements and triglyceride analysis cells are seeded in 6 well plates at 1.8×10^6 cells (THP-1) and 1×10^6 cells (HepG2) per well, respectively. CHOLESTEROL EFFLUX THP-1 cells are seeded in 6 well plates at 1×10^6 cells per well in RPMI 1640 medium containing 10% FCS and 100 nM TPA for 72 h. After washing with PBS cells are incubated 24 h with fresh in RPMI 1640 medium containing 10% FCS and 100 nM TPA. […] Medium is collected, centrifuged to remove cell debris and assayed for cholesterol using a commercial fluorometric kit (Molecular Probes A-12216). The remaining cellular proteins are lysed with 0.3 NNaOH and protein content measured with the Biorad Bradford reagent. THP-1 (1×10^6 cells per dish) cells were seeded in 6 well dishes in 3 ml modified RPMI 1640 medium (ATTC, Cat. […] After incubation for 24 hours, total cholesterol was determined from cell supernatant in each of the wells using an enzymatic assay with fluorescence read-out for the determination of cholesterol (Amplex Red Cholesterol Assay Kit (A-12213). The fluorescence readout per mg of total protein content as determined from cells that were present in the respective well are shown in FIGS. 9 or 11 as an example.

GAL4-LXRa-LBD = target: T2, GAL4-LXRa-LBD (Homo sapiens, UniProt Q13133); assay: Mammalian one hybrid (M1H) luciferase assay in HEK293 cells, LXR alpha LBD
T2 construct: expressed in transfected cells; host or cells: HEK293
T2 sequence (Q13133 209-447 limits assumed): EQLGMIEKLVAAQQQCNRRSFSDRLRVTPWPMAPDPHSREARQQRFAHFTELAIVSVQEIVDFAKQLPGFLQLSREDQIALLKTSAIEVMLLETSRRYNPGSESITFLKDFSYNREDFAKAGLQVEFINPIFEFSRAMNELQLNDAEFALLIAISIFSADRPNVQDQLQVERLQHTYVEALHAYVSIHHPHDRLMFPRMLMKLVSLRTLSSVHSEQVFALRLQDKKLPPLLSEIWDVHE
Protocol: as §1

SMILES | triglyceride mass (HepG2 liver cells) | luciferase reporter gene expression mediated through GAL4-LXRb-LBD (GAL4-LXRb-LBD) | LXR beta LBD construct mediated luciferase activity compared with LXR alpha construct (GAL4-LXRb-LBD) | cholesterol export (THP-1 macrophages) | luciferase reporter gene expression mediated through GAL4-LXRa-LBD (GAL4-LXRa-LBD)
C=CCn1c(N2C3CC(C)(C)CC2(C)C3)nc2ccc(I)cc2c1=O (stereo not drawn) [formula (9)] | do not cause a significant increase | activate luciferase reporter gene expression in a dose dependent manner | much stronger than with LXR alpha construct | marked increase | activate luciferase reporter gene expression in a dose dependent manner
CC(C)n1c(N2C3CC(C)(C)CC2(C)C3)nc2ccc(I)cc2c1=O (stereo not drawn) [formula (10)] | do not cause a significant increase | activate luciferase reporter gene expression in a dose dependent manner | much stronger than with LXR alpha construct | marked increase | activate luciferase reporter gene expression in a dose dependent manner
CCCn1c(N2[C@@H]3CC(C)(C)C[C@@]2(C)C3)nc2cccc(F)c2c1=O [formula (11)] | slight increase | activate luciferase reporter gene expression in a dose dependent manner | – | marked increase | activate luciferase reporter gene expression in a dose dependent manner
C=CCn1c(N2[C@@H]3CC(C)(C)C[C@@]2(C)C3)nc2cccc(F)c2c1=O [formula (12)] | slight increase | activate luciferase reporter gene expression in a dose dependent manner | – | marked increase | activate luciferase reporter gene expression in a dose dependent manner
